Assay results as given in patent publication US20140357579A1, “SYNTHETIC PEPTIDE AMIDES AND DIMERS THEREOF” (priority 2006, published 2014).
Like-named read-outs stand apart in the source and are kept apart here. Square brackets hold non-standard residues; d marks the D form. Side chains are listed from the residue outwards. Peptide text beside a SMILES is read from it. dOrn = NCCC[C@@H](N)C(=O)O

Legend:
[1] = target: T1, mouse kappa opioid receptor (mKOR) (Mus musculus, UniProt P33534); assay: Inhibition of forskolin-stimulated cAMP production in R1.G1 cells (TR-FRET cAMP immunoassay); assay type: cell-based; conditions: for EC50: inhibition of forskolin-stimulated cAMP
T1 construct: a mouse thymoma cell line that expresses only the kappa-opioid receptor and no other opioid receptor subtype; host or cells: R1.G1 mouse thymoma cells
T1 sequence (P33534 whole entry): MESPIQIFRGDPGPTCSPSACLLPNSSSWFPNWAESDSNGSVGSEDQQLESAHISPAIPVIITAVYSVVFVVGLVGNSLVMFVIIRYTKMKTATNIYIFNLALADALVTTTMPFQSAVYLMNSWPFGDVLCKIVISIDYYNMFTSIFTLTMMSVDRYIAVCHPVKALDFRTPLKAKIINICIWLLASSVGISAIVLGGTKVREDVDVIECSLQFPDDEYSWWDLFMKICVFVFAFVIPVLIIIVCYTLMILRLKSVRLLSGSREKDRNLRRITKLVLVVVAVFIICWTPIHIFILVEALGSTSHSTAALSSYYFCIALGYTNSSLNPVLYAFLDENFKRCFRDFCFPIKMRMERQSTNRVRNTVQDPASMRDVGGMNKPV

[2] = target: T2, human kappa opioid receptor (hKOR) (Homo sapiens, UniProt P41145); assay: NFAT-luciferase reporter assay in HEK-293 cells transfected with human kappa opioid receptor and chimeric G-protein; assay type: cell-based; conditions: for EC50: transfected HEK-293 cells, luciferase reporter
T2 construct: expressed in transfected cells; host or cells: HEK-293 cells (ATCC), transient transfection with pcDNA3-hOPRK1
T2 sequence (P41145 whole entry): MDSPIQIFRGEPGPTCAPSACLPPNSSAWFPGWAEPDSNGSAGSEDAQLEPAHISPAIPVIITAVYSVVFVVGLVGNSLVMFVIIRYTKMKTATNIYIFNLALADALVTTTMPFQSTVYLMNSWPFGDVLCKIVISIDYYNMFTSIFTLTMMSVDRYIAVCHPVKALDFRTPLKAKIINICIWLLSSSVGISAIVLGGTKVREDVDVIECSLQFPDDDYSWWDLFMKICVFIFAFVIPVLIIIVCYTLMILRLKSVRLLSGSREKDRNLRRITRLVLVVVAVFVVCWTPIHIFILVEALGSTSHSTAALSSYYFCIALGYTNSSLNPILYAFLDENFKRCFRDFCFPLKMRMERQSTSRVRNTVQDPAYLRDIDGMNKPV

[3] = HEK293, percent maximal activation compared to full induction by known kappa agonists, read-out: hKOR Efficacy(%)
[4] = percent maximal activation compared to full induction by known kappa agonists
[5] = R1.G1 cells, read-out: mKOR Efficacy(%)
[6] = read-out: mKOR Efficacy(%), R1.G1 cells
[7] = HEK293, read-out: hKOR Efficacy(%), percent maximal activation compared to full induction by known kappa agonists
[8] = R1.G1 cells, read-out: mKOR EC50

Question: How did the “mKOR Efficacy(%)” value ([1]; R1.G1 cells) turn out when `CCN1CCCN(C(=O)[C@@H](CCCN)NC(=O)[C@@H](CC(C)C)NC(=O)[C@@H](Cc2ccccc2)NC(=O)[C@H](N)Cc2ccccc2)CC1` [Compound 18, D-Phe-D-Phe-D-Leu-D-Orn-[4-ethylhomopiperazine amide]] was run?
Answer: 99%

Question: And the Emax [2, 3]?
Answer: 99%

Question: Which results are given for `CNC(=N)N1CCCN(C(=O)[C@@H](CCCN)NC(=O)[C@@H](CC(C)C)NC(=O)[C@@H](Cc2ccccc2)NC(=O)[C@H](N)Cc2ccccc2)CC1` [Compound 19, D-Phe-D-Phe-D-Leu-D-Orn-[4-(N-methyl)amidinohomopiperazine amide]]?
Answer: mKOR Efficacy(%) ([1]; R1.G1 cells): 101%; Emax [2, 3]: 93%; EC50 ([2]; read-out: hKOR EC50): 0.21 nM

Question: How did the “mKOR Efficacy(%)” value ([1]; R1.G1 cells) turn out when `CC(C)C[C@@H](NC(=O)[C@@H](Cc1ccccc1)NC(=O)[C@H](N)Cc1ccccc1)C(=O)N[C@H](CCCNC(C)C)C(=O)N1CCC(N)(C(=O)O)CC1` [Compound 20, D-Phe-D-Phe-D-Leu-(δ-iPr)D-Orn-[omega(4-Aminopiperidine-4-carboxylic acid)]-OH] was run?
Answer: 92%

Question: What about the Emax [2, 3] of the same compound?
Answer: 97%

Question: And the EC50 ([2]; read-out: hKOR EC50)?
Answer: 0.15 nM

Question: Which “mKOR Efficacy(%)” value ([1]; R1.G1 cells) does the source give for `CC(C)C[C@@H](NC(=O)[C@@H](Cc1ccccc1)NC(=O)[C@H](N)Cc1ccccc1)C(=O)N[C@H](CCCCN)C(=O)NCC1OCCO1` [Compound 25] here?
Answer: 85%

Question: And the “hKOR Efficacy(%)” value [2, 4]?
Answer: 98%

Question: `CC(C)C[C@@H](NC(=O)[C@@H](Cc1ccccc1)NC(=O)[C@H](N)Cc1ccccc1)C(=O)N[C@H](CCCCN)C(=O)N1CCN(c2ncccn2)CC1` [Compound 26, D-Phe-D-Phe-D-Leu-D-Lys-[2-(piperazin-1-yl)pyrimidine amide]] was tested. Which “mKOR Efficacy(%)” value ([1]; R1.G1 cells) did it give?
Answer: 78%

Question: And the “hKOR Efficacy(%)” value [2, 4]?
Answer: 98%

Question: For `CC(C)C[C@@H](NC(=O)[C@@H](Cc1ccccc1)NC(=O)[C@H](N)Cc1ccccc1)C(=O)N[C@H](CCCCN)C(=O)N1CCN(c2cnccn2)CC1` [Compound 27, D-Phe-D-Phe-D-Leu-D-Lys-[2-(piperazin-1-yl)pyrazine amide]], which “mKOR Efficacy(%)” value ([1]; R1.G1 cells) is on record?
Answer: 85%

Question: And the “hKOR Efficacy(%)” value [2, 4]?
Answer: 100%

Question: Which results are given for `CC(C)C[C@@H](NC(=O)[C@@H](Cc1ccccc1)NC(=O)[C@H](N)Cc1ccccc1)C(=O)N[C@H](CCCCN)C(=O)N1CCN(c2ccccn2)CC1` [Compound 28, D-Phe-D-Phe-D-Leu-D-Lys-[1-(pyridin-2-yl)piperazine amide]]?
Answer: mKOR Efficacy(%) ([1]; R1.G1 cells): 89%; hKOR Efficacy(%) [2, 4]: 100%

Question: What does the source list for `CC(C)C[C@@H](NC(=O)[C@@H](Cc1ccccc1)NC(=O)[C@H](N)Cc1ccccc1)C(=O)N[C@H](CCCCN)C(=O)N1CCN(c2nccs2)CC1` [Compound 29, D-Phe-D-Phe-D-Leu-D-Lys-[2-(piperazin-1-yl)thiazole amide]]?
Answer: mKOR Efficacy(%) ([1]; R1.G1 cells): 85%; hKOR Efficacy(%) [2, 4]: 92%

Question: What does the source list for `CC(C)C[C@@H](NC(=O)[C@@H](Cc1ccccc1)NC(=O)[C@H](N)Cc1ccccc1)C(=O)N[C@H](CCCCN)C(=O)N1CCN(S(=O)(=O)N(C)C)CC1` [Compound 30, D-Phe-D-Phe-D-Leu-D-Lys-[N,N-dimethylpiperazine-1-sulfonamide amide]]?
Answer: mKOR Efficacy(%) ([1]; R1.G1 cells): 86%; hKOR Efficacy(%) [2, 4]: 101%

Question: `CC(C)C[C@@H](NC(=O)[C@@H](Cc1ccccc1)NC(=O)[C@H](N)Cc1ccccc1)C(=O)N[C@H](CCCCN)C(=O)N1CCN(S(C)(=O)=O)CC1` [Compound 31, D-Phe-D-Phe-D-Leu-D-Lys-[1-(methylsulfonyl)piperazine amide]] was tested. Which “mKOR Efficacy(%)” value ([1]; R1.G1 cells) did it give?
Answer: 82%

Question: What about the “hKOR Efficacy(%)” value [2, 4] of the same compound?
Answer: 100%

Question: For `CC(C)C[C@@H](NC(=O)[C@@H](Cc1ccccc1)NC(=O)[C@H](N)Cc1ccccc1)C(=O)N[C@H](CCCCN)C(=O)N1CCN(S(=O)(=O)c2ccccc2)CC1` [Compound 32, D-Phe-D-Phe-D-Leu-D-Lys-[1-(phenylsulfonyl)piperazine amide]], which “mKOR Efficacy(%)” value ([1]; R1.G1 cells) is on record?
Answer: 87%

Question: What about the “hKOR Efficacy(%)” value [2, 4] of the same compound?
Answer: 101%

Question: `CC(C)C[C@@H](NC(=O)[C@@H](Cc1ccccc1)NC(=O)[C@H](N)Cc1ccccc1)C(=O)N[C@H](CCCCN)C(=O)N1CCN(C(=O)c2ccccc2)CC1` [Compound 33, D-Phe-D-Phe-D-Leu-D-Lys-[phenyl(piperazin-1-yl)methanone amide]] was tested. Which “mKOR Efficacy(%)” value ([1]; R1.G1 cells) did it give?
Answer: 92%

Question: And the “hKOR Efficacy(%)” value [2, 4]?
Answer: 94%

Question: What does the source list for `CC(C)C[C@@H](NC(=O)[C@@H](Cc1ccccc1)NC(=O)[C@H](N)Cc1ccccc1)C(=O)N[C@H](CCCCN)C(=O)N1CCS(=O)(=O)CC1` [Compound 34, D-Phe-D-Phe-D-Leu-D-Lys-[thiolmorpholine-1,1-dioxide amide]]?
Answer: mKOR Efficacy(%) ([1]; R1.G1 cells): 89%; hKOR Efficacy(%) [2, 4]: 103%

Question: For `CC(C)C[C@@H](NC(=O)[C@@H](Cc1ccccc1)NC(=O)[C@H](N)Cc1ccccc1)C(=O)N[C@H](CCCCN)C(=O)NCc1ccc(C(F)(F)F)nc1` [Compound 35, D-Phe-D-Phe-D-Leu-D-Lys-[6-trifluoromethyl-3-aminomethylpyridine amide]], which “mKOR Efficacy(%)” value ([1]; R1.G1 cells) is on record?
Answer: 85%

Question: And the “hKOR Efficacy(%)” value [2, 4]?
Answer: 95%

Question: For `CC(C)C[C@@H](NC(=O)[C@@H](Cc1ccccc1)NC(=O)[C@H](N)Cc1ccccc1)C(=O)N[C@H](CCCCN)C(=O)NCc1ccc2[nH]c(=O)[nH]c2c1` [Compound 37, D-Phe-D-Phe-D-Leu-D-Lys-[5-(aminomethyl)-1H-benzo[d]imidazol-2(3H)-one amide]], which “mKOR Efficacy(%)” value ([1]; R1.G1 cells) is on record?
Answer: 87%

Question: And the “hKOR Efficacy(%)” value [2, 4]?
Answer: 99%

Question: How did the Emax [1, 5] turn out when `Cc1cnc(CNC(=O)[C@@H](CCCCN)NC(=O)[C@@H](CC(C)C)NC(=O)[C@@H](Cc2ccccc2)NC(=O)[C@H](N)Cc2ccccc2)cn1` [Compound 38] was run?
Answer: 87%

Question: And the Emax [2, 3]?
Answer: 100%

Question: With `CC(C)C[C@@H](NC(=O)[C@H](N)Cc1ccccc1)C(=O)N[C@H](CCCN)C(=O)N[C@@H](CCCCNC(=O)[C@@H](CCCN)NC(=O)[C@@H](CC(C)C)NC(=O)[C@@H](Cc1ccccc1)NC(=O)[C@H](N)Cc1ccccc1)C(=O)O` [Compound 40] as the compound, how does the Emax [1, 6] read?
Answer: 96%

Question: What about the Emax [2, 7] of the same compound?
Answer: 83%

Question: And the EC50 ([2]; hKOR EC50 (nM))?
Answer: 0.26 nM

Question: How did the “mKOR Efficacy(%)” value ([1]; R1.G1 cells) turn out when `CC(C)C[C@@H](NC(=O)[C@H](N)Cc1ccccc1)C(=O)N[C@H](CCCN)C(=O)N[C@@H](CCCCNC(=O)[C@@H](CCCN)NC(=O)[C@@H](CC(C)C)NC(=O)[C@@H](Cc1ccccc1)NC(=O)[C@H](N)Cc1ccccc1)C(=O)O` [Compound 41] was run?
Answer: 100%

Question: And the EC50 ([2]; hKOR EC50 (nM))?
Answer: 0.2 nM

Question: What about the “hKOR Efficacy(%)” value [2, 4] of the same compound?
Answer: 89%

Question: What does the source list for `CC(C)C[C@@H](NC(=O)[C@@H](Cc1ccccc1)NC(=O)[C@H](N)Cc1ccccc1)C(=O)N[C@H](CCCN)C(=O)NCCCC[C@H](NC(=O)[C@H](N)CCCN)C(=O)O` [Compound 42]?
Answer: EC50 [1, 8]: 0.24 nM; Emax [1, 5]: 97%; Emax [2, 3]: 95%; EC50 ([2]; read-out: hKOR EC50): 0.27 nM

Question: What does the source list for `CC(C)C[C@@H](NC(=O)[C@@H](Cc1ccccc1)NC(=O)[C@H](N)Cc1ccccc1)C(=O)N[C@H](CCCN)C(=O)NCCCC[C@H](NC(=O)[C@@H](CCCN)NC(=O)[C@@H](CC(C)C)NC(=O)[C@@H](Cc1ccccc1)NC(=O)[C@H](N)Cc1ccccc1)C(N)=O` [Compound 43] (H-[dF][dF][dL][dOrn]K([dOrn-dL-dF-dF])-NH2)?
Answer: EC50 ([1]; mKOR EC50 (nM), R1.G1 cells): 0.08 nM; Emax [1, 6]: 101%; Emax [2, 7]: 94%; EC50 ([2]; hKOR EC50 (nM)): 0.13 nM

Question: With `CC(C)C[C@@H](NC(=O)[C@@H](Cc1ccccc1)NC(=O)[C@H](N)Cc1ccccc1)C(=O)N[C@H](CCCN)C(=O)NCCCC[C@H](NC(=O)[C@H](N)CCCN)C(=O)N1CCNCC1` [Compound 44] as the compound, how does the EC50 [1, 8] read?
Answer: 1.3 nM

Question: What about the Emax [1, 5] of the same compound?
Answer: 91%

Question: And the Emax [2, 3]?
Answer: 93%

Question: What about the EC50 ([2]; read-out: hKOR EC50) of the same compound?
Answer: 0.25 nM

Question: Which results are given for `CC(C)C[C@@H](NC(=O)[C@@H](Cc1ccccc1)NC(=O)[C@H](N)Cc1ccccc1)C(=O)N[C@H](CCCN)C(=O)NCCCC[C@@H](NC(=O)[C@H](N)CCCN)C(=O)O` [Compound 45]?
Answer: EC50 [1, 8]: 0.05 nM; Emax [1, 5]: 96%; Emax [2, 3]: 96%; EC50 ([2]; read-out: hKOR EC50): 0.28 nM
